From patent EP0023083A1, “Oxodiazole derivatives, processes for their production and pharmaceutical composition containing them” (BEECHAM GROUP PLC, priority 1979, dated 1981)

Tested on: 5-hydroxy tryptamine induced bronchoconstriction
Test: Bronchodilator activity: inhibition of 5-hydroxy tryptamine induced bronchoconstriction (Konzett-Rossler preparation)
Format: in vivo
Details: Cavia porcellus, iv; anaesthetised, artificially respired guinea pig
Experimental: The compounds were examined for their ability to inhibit 5-hydroxy tryptamine induced bronchoconstriction in the anaethetised, artifically respired guinea pig (Konzett-Rossler preparation). The compounds were administered intravenously.

SMILES: CCCCCCC(C)(O)CCN1C(=O)N(C)C(=O)C1C/C=C\CCCCC(C)O (centres unmarked) [Compound 3]
- ED50: 3.6 µg/kg

SMILES: CCCCCCC(C)(O)CCN1C(=O)N(C)C(=O)C1CCCCCCCC(C)O (centres unmarked) [Compound 2]
- ED50: 5.5 µg/kg
